US20180110743A1, “COMPOSITIONS AND METHODS FOR TREATING HEPATOCELLULAR CARCINOMA” (Northwestern University, priority 2015, published 2018)
Like-named read-outs stand apart in the source and are kept apart here.

Assays:
[1] = system: K562/ADR; assay: Growth inhibition IC50 in multidrug-resistant vs parental cells (resistance factor), K562/ADR; assay type: cell-based; conditions: ratio of IC50 in K562/ADR to sensitive parental cells
Method: (§1) To address this point, the IC50 of MEAN in cell lines with or without activated p-glycoprotein were compared based on the rationale that if an agent is a substrate, its IC50 (growth inhibition in this case) will increase substantially in cells with activated p-glycoproteins (multi-drug resistant cells). Three separate experiments were carried out to determine the values of IC50, as mean±standard deviation (μM), and the inhibition rates of each concentration of compounds were tested in triplicate. The resistance factor (RF) was calculated as the ratio of the IC50 value of the multidrug-resistant cells to that of the corresponding sensitive parental cells.
(§2) IC50 of MEAN and reference compounds, doxorubicin and vincristine (VCR), were evaluated in three MDR expressing sublines: K562/ADR, MCF-7/ADR, and KB/VCR developed from resistance to Adriamycin (ADR) (FIG. 4C). For each of these cell lines, the RFs were measured to indicate the anti-MDR properties of the compounds. The resistance factor for doxorubicin in K562/ADR and MCF-7/ADR sublines and for vincristine in the KB/VCR subline were 74.1, 54.0, and 51.2.

[2] = system: MCF-7/ADR; assay: Growth inhibition IC50 in multidrug-resistant vs parental cells (resistance factor), MCF-7/ADR; assay type: cell-based; conditions: ratio of IC50 in MCF-7/ADR to sensitive parental cells
Method: as §1, §2

[3] = system: Huh7-luc xenograft; assay: Huh7-luc xenograft tumor growth in nude mice; assay type: in vivo; conditions: 15 mg/kg each agent, IP, 5 days-on and 2 days-off for 42 days
Method: (§3) FIG. 1. MEAN inhibits Huh7-luc xenograft tumor growth more potently than sorefenib in nude mice. Ten days after inoculation of 10^7 tumor cells subcutaneously, mice were treated with MEAN (15 mg/kg), sorafenib (15 mg/kg), or MEAN and sorafenib in combination at 15 mg/kg each, or vehicle through IP at a schedule of 5 days-on and 2 days-off for 42 days. The tumor growths were measured by whole mount imaging of luciferin florescence (representative images) (A) photon counts biweekly (B) and photon count at end of the experiment, day 42th (C), by volume (D), and by tumor weight at the experimental end point (E). Statistical analyses using t test are shown in (C and E), where *=p<0.5 and **=p<0.01. Where there is not black bar indicates p>0.5 (n=5).
(§4) HepG2-luc and Huh7-luc xenograft studies of efficacy and toxicity: Male nu/nu (nude) mice (18-20 g at experiment initiation) were maintained at the vivarium of Zhejiang University in a pathogen-free unit, under a 12-hour light/dark cycle. […] Images were collected and analyzed with Living Image software (Slidebook 4.1, Denver, Colo.). Tumor volumes were determined twice weekly by mechanically measuring the length (a) and width (b), with volume=ab^2/2. Tumor weights were measured at the experimental end point, and statistical analysis was performed using Student's t test. […]

[4] = system: HepG2-luc xenograft; assay: HepG2-luc xenograft tumor growth in nude mice; assay type: in vivo; conditions: 15 mg/kg each agent, IP, 5 days-on and 2 days-off for 42 days
Method: as §3, with “FIG. 2.” for “FIG. 1.”, “inhibits HepG2-luc” for “inhibits Huh7-luc”
as §4

[5] = Toxicity in treated xenograft mice: body weight, behavior, eating, stool; assay type: in vivo; conditions: 15 mg/kg each agent, 5 days on and 2 days off, six weeks
Method: FIG. 3. Toxicity induced by treatment of MEAN, sorafenib or a combination of both were measured against vehicle treated group through monitoring body weight changes throughout treatment course (A) and detecting the serum levels of liver enzymes at the experimental end point (B). The recovery of liver enzymes days after experimental end point (42nd day). n=10. a: each group vs Vehicle, b: sorafenib vs MEAN, c: M+S vs MEAN. *: p<0.05, **: p<0.01, Sorafenib vs M+S: has no difference.
HepG2-luc and Huh7-luc xenograft studies of efficacy and toxicity: Male nu/nu (nude) mice (18-20 g at experiment initiation) were maintained at the vivarium of Zhejiang University in a pathogen-free unit, under a 12-hour light/dark cycle. […] Images were collected and analyzed with Living Image software (Slidebook 4.1, Denver, Colo.). Tumor volumes were determined twice weekly by mechanically measuring the length (a) and width (b), with volume=ab^2/2. Tumor weights were measured at the experimental end point, and statistical analysis was performed using Student's t test.
To determine whether the combinational treatment by MEAN and sorefenib could increase toxicity compared to those caused by monotherapy, the toxicity induced by the treatment with either agent alone and in combination was evaluated in treated animals. […]

[6] = Serum ALT and AST measurement in treated mice; assay type: in vivo; conditions: 42nd day of treatment, 15 mg/kg each agent, vs vehicle
Method: Blood samples were collected from each mouse at the end of the 42th day. Serum alanine aminotransferase aspartate (ALT) and aspartate aminotransferase (AST) were measured with an automated biochemical analyzer (DRI-CHEM 4000ie, FUJIFILM).
To determine whether the combinational treatment by MEAN and sorefenib could increase toxicity compared to those caused by monotherapy, the toxicity induced by the treatment with either agent alone and in combination was evaluated in treated animals. Toxicity was assessed by periodic body weight, mice behavior (grooming), eating, stool consistency, and serum liver enzymes levels (alanine aminotransferase, ALT, and aspartate aminotransferase, AST) at the experimental end points. […] This increase is reversible within 2 weeks of the treatment withdrawal (FIG. 3C).

[7] = system: c-myc; assay: Western blot of treated xenograft tumor tissue, c-myc; assay type: in vivo, mice; conditions: Huh7 and HepG2 tumors, end of 42 day treatment
Method: (§5) FIG. 6. […] The intensity of vehicle is set at 1 and ratios of treatment/vehicle are plotted in each quantitative graph.
(§6) Cells or tumor chunks were lysed with RIPA lysis buffer (Beyotime Biotechnology, Jiangsu, China) containing 1% Halt™ Protease and Phosphatase Inhibitor Cocktail (100X) (Thermo Fisher Scientific). 20 ug of total protein per lanewere separated by 10% SDS-PAGE gels and transferred to polyvinylidene difluoride membranes (Millipore, Bedford, Mass.), and blocked with 1% BSA in TBS-Tween 20 (0.05%, v/v) for 1 h at room temperature. The membrane was incubated with primary antibody overnight at 4° C. Antibodies for c-Myc and GAPDH were obtained from Cell Signaling Technology (Beverly, Mass.), and TXNIP, SHP-1, and SIRT1 were obtained from Abcam (Cambridge, Mass.). After washing, the membrane was incubated with the appropriate horseradish peroxidase-conjugated secondary antibody (1:3000; Eptmomics) for 1 h. Blots were visualized by ECL-associated fluorography (Millipore). Relative band intensity was quantified using the ImageJ software to determine c-myc, TXNIP, SHP-1, and SIRT1 levels.
To evaluate whether the gene expression changes in response to MEAN is cell type specific, another HCC cell line, Huh7 was also examined for the corresponding gene expression changes upon the treatment by MEAN. […]

[8] = system: SIRT1; assay: Western blot of treated xenograft tumor tissue, SIRT1; assay type: in vivo, mice; conditions: Huh7 and HepG2 tumors, end of 42 day treatment
Method: as §5, §6

[9] = system: SHP-1; assay: Western blot of treated xenograft tumor tissue, SHP-1; assay type: in vivo, mice; conditions: Huh7 and HepG2 tumors, end of 42 day treatment
Method: as §5, §6

[10] = system: TXNIP; assay: Western blot of treated xenograft tumor tissue, TXNIP; assay type: in vivo, mice; conditions: Huh7 and HepG2 tumors, end of 42 day treatment
Method: as §5, §6

[11] = system: HCC; conditions: cited from earlier work
[12] = system: KB/VCR; assay: Growth inhibition IC50 in multidrug-resistant vs parental cells (resistance factor), KB/VCR; assay type: cell-based; conditions: ratio of IC50 in KB/VCR to sensitive parental cells
Method: as §1, §2

[13] = system: HepG2 cells; assay: Cell cycle profiling by Dapi staining and flow cytometry; assay type: cell-based, human; conditions: 5 uM for 24 hours
Method: After treatment, cells were washed with PBS two times and centrifugation then, re-suspended in PBS (Ca and Mg free). 3.0m1 ice cold 95% ethanol was added to the cell pellet in a dropwise manner while vortexing and then was incubated for 30 minutes. The volume was brought up to 15 mL with PBS and the cells was pelleted and washed one time with PBS via centrifugation. Cells were resuspended in 1 ml of 10 ug/ml Dapi in PBS with 0.1% TritonX-100 to a concentration of 1×10^6cells/ml and incubated for 30 minutes on ice. The samples were then analyzed through flowcytometery and the DNA contents of the cellular population were sorted and evaluated.
Additional evidence supporting the differences between MEAN and AMN came from their differential impact on cell cycle.

[14] = system: c-myc; assay: RNA array analysis of treated HepG2 cells; assay type: cell-based, human; conditions: 20 μM for 6 hours, vs DMSO
Method: RNA expression analysis was performed by GeneChip® PrimeView™ Human Gene Expression Array. Initially, genes were identified as being differentially expressed on the basis of a statistical significance (P <0.05) and 1.5-fold change (up or down) in expression levels in each comparison.
The choice of the treatment dose was based on the PK analyses (supplemental material) that the serum concentration of MEAN is around 20 uM approximately 6 hours after injection. Furthermore a relatively short duration of treatment was designed to catch the more primary cellular responses at the early stage of the treatment. GeneChip® PrimeView™ Human Gene Expression Array was used in triplicates to quantify RNA extracted from treated HepG2 cells.

[15] = system: c-myc; assay: Western blot of treated HCC cells in culture, c-myc; assay type: cell-based, human; conditions: HepG2 and Huh7 cells; less than 10 uM (FIG. 5B and D)
Method: as §6

[16] = system: SIRT1; assay: Western blot of treated HCC cells in culture, SIRT1; assay type: cell-based, human; conditions: HepG2 and Huh7 cells
Method: as §6

[17] = system: SHP-1; assay: Western blot of treated HCC cells in culture, SHP-1; assay type: cell-based, human; conditions: HepG2 and Huh7 cells in culture
Method: as §6

[18] = system: TXNIP; assay: Expression in treated HCC cells in culture, TXNIP; assay type: cell-based, human; conditions: treated cells in vitro
Method: as §6

COc1cccc2c1C(=O)c1c(O)c3c(c(O)c1C2=O)C[C@@](O)(C(=O)CO)C[C@@H]3O[C@H]1C[C@H](N)[C@H](O)[C@H](C)O1 [doxorubicin, reference compound]
resistance factor (RF) [1]: 74.1 | resistance factor (RF) [2]: 54.0

CNC(=O)c1cc(Oc2ccc(NC(=O)Nc3ccc(Cl)c(C(F)(F)F)c3)cc2)ccn1 [sorafenib, reference compound]
tumor growth compared with vehicle (luciferase emission, tumor volume, tumor weight) [3]: significant tumor growth retardation | tumor growth compared with vehicle (luciferase emission, tumor volume, tumor weight) [4]: significant tumor growth retardation | body weight change [5]: did not significantly alter body weight | serum liver enzymes (ALT and AST) at experimental end point [6]: more significantly increased | c-myc protein level in tumors [7]: does not significantly change | SIRT1 protein level in tumors [8]: does not significantly change | SHP-1 protein level in tumors [9]: does not significantly change | TXNIP protein level in tumors [10]: does not significantly change | median overall survival ([11]; Asian study): 6.5 months | median overall survival ([11]; SHARP study): 10.7 months

CC[C@]1(O)C[C@H]2CN(CCc3c([nH]c4ccccc34)[C@@](C(=O)OC)(c3cc4c(cc3OC)N(C=O)[C@H]3[C@@](O)(C(=O)OC)[C@H](OC(C)=O)[C@]5(CC)C=CCN6CC[C@]43[C@@H]65)C2)C1 [vincristine, reference compound]
resistance factor (RF) [12]: 51.2

Amonafide [AMN, reference compound]
cell cycle profile (DNA content) [13]: G2 accumulation with diminishing Gl | c-myc RNA expression level [14]: significantly reduce | c-myc (myc) protein level [15]: does not significantly reduces | SIRT1 protein level [16]: not significantly changed | SHP-1 protein level [17]: does not significantly impact | TXNIP expression [18]: significantly increase
